From ChEMBL document CHEMBL2321828, “Interrogation of the Active Sites of Protein Arginine Deiminases (PAD1, -2, and -4) Using Designer Probes” (ACS Med Chem Lett, 2013)

Legend:
[1] = target: Protein-arginine deiminase type-4 (Homo sapiens) (UniProt Q9UM07); assay: Ratio of Kinact to Ki for human PAD4 using BAEE as substrate after 30 mins
[2] = target: Protein-arginine deiminase type-2 (Mus musculus) (UniProt Q08642); assay: Ratio of Kinact to Ki for mouse PAD2 using BAEE as substrate after 30 mins
Protein-arginine deiminase type-2 (Mus musculus), sequence (Q08642 whole entry): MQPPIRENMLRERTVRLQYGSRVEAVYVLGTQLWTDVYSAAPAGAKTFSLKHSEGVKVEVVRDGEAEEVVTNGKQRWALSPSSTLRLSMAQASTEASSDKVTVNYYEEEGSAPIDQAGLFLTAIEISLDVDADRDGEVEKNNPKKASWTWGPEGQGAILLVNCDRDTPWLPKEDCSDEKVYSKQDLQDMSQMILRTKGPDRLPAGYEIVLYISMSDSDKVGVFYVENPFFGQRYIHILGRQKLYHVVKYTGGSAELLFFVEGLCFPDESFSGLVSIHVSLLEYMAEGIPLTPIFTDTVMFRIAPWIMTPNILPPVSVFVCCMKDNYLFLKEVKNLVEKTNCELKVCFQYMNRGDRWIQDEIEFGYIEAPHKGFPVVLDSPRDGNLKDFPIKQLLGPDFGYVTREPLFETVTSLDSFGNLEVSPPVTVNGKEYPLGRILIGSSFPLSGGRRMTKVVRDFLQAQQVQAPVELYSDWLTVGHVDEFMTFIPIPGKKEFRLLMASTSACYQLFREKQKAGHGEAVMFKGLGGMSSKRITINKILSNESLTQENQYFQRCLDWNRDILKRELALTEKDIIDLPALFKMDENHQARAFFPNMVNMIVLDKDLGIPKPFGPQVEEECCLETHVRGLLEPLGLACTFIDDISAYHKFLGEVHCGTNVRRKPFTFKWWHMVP

[3] = target: T1, Protein-arginine deiminase type-1 (Homo sapiens) (UniProt Q9ULC6); assay: Ratio of Kinact to Ki for human PAD1 using BAEE as substrate after 30 mins
T1 sequence (whole entry): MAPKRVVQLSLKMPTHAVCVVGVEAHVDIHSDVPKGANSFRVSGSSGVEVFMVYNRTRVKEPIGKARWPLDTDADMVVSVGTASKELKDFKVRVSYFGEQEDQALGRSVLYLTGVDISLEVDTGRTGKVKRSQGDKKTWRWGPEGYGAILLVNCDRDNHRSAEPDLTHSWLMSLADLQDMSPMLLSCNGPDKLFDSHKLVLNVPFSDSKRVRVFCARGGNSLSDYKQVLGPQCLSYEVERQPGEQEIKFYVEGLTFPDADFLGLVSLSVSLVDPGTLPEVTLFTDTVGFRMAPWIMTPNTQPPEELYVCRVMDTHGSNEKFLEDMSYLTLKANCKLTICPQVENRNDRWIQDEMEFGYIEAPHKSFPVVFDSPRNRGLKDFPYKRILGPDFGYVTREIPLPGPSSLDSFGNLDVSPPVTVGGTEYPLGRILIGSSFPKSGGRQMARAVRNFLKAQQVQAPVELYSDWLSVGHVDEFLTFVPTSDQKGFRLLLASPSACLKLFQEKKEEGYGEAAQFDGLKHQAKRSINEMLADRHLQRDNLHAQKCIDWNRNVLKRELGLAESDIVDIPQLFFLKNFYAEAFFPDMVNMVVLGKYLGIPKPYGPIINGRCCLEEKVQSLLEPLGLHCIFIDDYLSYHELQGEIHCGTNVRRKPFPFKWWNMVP

Protein-arginine deiminase type-4 (Homo sapiens), sequence (Q9UM07 whole entry): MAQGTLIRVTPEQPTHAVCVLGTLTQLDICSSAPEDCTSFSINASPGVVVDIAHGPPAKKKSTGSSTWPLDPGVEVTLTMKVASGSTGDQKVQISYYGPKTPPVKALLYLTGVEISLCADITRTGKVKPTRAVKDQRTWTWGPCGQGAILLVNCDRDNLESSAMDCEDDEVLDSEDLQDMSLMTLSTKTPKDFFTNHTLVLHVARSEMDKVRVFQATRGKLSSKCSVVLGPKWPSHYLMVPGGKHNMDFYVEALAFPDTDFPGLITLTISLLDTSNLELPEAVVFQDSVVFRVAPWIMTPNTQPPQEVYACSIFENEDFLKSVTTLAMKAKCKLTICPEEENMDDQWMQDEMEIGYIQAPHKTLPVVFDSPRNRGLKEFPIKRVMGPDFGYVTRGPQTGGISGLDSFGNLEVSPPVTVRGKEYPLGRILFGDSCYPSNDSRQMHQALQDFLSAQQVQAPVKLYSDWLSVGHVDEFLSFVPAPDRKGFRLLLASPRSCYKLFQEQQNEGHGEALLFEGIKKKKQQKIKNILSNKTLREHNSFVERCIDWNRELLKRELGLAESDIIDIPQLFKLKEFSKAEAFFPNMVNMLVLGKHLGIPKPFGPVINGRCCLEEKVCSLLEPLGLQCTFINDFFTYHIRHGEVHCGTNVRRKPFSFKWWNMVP

Compound | Ratio [1] [M⁻¹ min⁻¹] | Ratio [2] [M⁻¹ min⁻¹] | Ratio [3] [M⁻¹ min⁻¹]
N=C(N)CCl | 60 | 9 | 32
COC(=O)[C@H](CCCNC(=N)CCl)NC(C)=O | 865 | 167 | 497
COC(=O)[C@H](CCCCNC(=N)CCl)NC(C)=O | 50 | 120 | 62
COC(=O)[C@H](CCNC(=N)CCl)NC(C)=O | 183 | 50 | 111
